How the values of the series were obtained: The solubility of propyl gallate (PG) in molten cyclododecanol (CD) was studied. […] Here, temperature indicating members were prepared by adding cylododecanol (CD) in an amount permitting dissolution of 8 times the amount (Example 3), 4 times the amount (Example 4), twice the amount (Example 5), 1.2 times the amount (Example 6) and 0.8 time the amount (Example 7) of 1 part by weight of propyl gallate (PG), respectively. […] As comparative examples, a temperature indicating material free of cyclododecanol (CD) and that containing 5 parts by weight of 1-docosanol, which is a linear saturated alcohol, instead of cyclododecanol (CD) were prepared in Comparative Example 4 and Comparative Example 5, respectively.

For the compound `CC(C)(c1ccc(O)cc1)c1ccc(O)cc1` [HBA, bisphenol A], the Solubility turned out to be 3.
For the compound `CCCCCCCCCCCCOC(=O)c1cc(O)c(O)c(O)c1` [LG, lauryl gallate], the Solubility was 10.
The compound `O=C(c1ccc(O)cc1)c1ccc(O)c(O)c1O` [Example 2344, 2,3,4,4′-tetrahydroxybenzophenone] returned a Solubility of 2.
Turning to `CCCOC(=O)c1cc(O)c(O)c(O)c1` [PG, propyl gallate], the Solubility was 8 and the “Solubility of propyl gallate (PG) in molten cyclododecanol (CD)” value is listed as “at least 0.8 g”.
